# Results as given in US10987669B2, “Apparatus and method for detection of tumour cells and circulating tumour cells” (MEDCOM ADVANCE, S.A., priority 2016, dated 2021).
# Tests used:
# Type in all cases: cell-based
# MCF7 and MCF12A cells = experiment: On-line detection of cancer and healthy cells in the detection microfluidic chip; conditions: 150 μM 2-NBDG, 5 min, hyperoxic 1×PBS, cells in flow at 0.025 mL/h
# Text: A detection chip based on the hydrodynamic focusing technique was constructed to continuously detect hypermetabolic cancer cells by measuring single cell fluorescence. It consisted of three inlets, a main single channel and an outlet (FIG. 8a). All inlet channels converged in a single one of 75 μm-width, which was widen to 600 μm (detection region). The conformation of the inlet channels ensures the focus of cells into a line, which can be further detected one by one. Depth of the whole microfluidic chip was 75 μm.
# For the on-line detection of cancer and healthy cells, MCF12A and MCF7 cells were separately detached from culture flasks, centrifuged at 1,300 rpm for 5 min and resuspended in 1 mL of 1×PBS under hyperoxic conditions. As mentioned above, hyperoxia was achieved by bubbling oxygen into the PBS solution for 20 min. 2-NBDG was then added to achieve 150 μM as the final concentration and incubated with suspended cells for 5 min, as the optimal condition. Afterwards, incubation was stopped by adding 2-fold volume of pre-cooled 1×PBS and non-uptaken 2-NBDG was removed by centrifuging cells at 1,300 rpm for 5 min and suspending in 1×PBS. […] An epi-fluorescence microscope was used to collect the fluorescence of the 2-NBDG uptaken by single cells (both, MCF12A and MCF7). Data was analyzed with Image J software.
# [1] = tested on: MCF7 breast cancer cell line (compared with MCF12A healthy breast cells); experiment: 2-NBD glucose uptake measurements on fixed cells; conditions: for Fluorescence intensity of 2-NBDG, cancer versus healthy cells: 300 μM 2-NBDG
# Procedure: MCF12A, a breast mammary epithelia-derived cell line, and MCF7 breast cancer cell line (American Type Culture Collection, ATCC, Manassas, Va., USA), were routinely cultured in DMEM/F-12 supplemented with 20 ng/mL of human epidermal growth factor, 100 ng/mL of cholera toxin, 0.01 mg/mL of bovine insulin, 500 ng/mL of hydrocortisone 95% and 5% donor horse serum; and in EMEM (Eagle's Minimum Essential Medium) supplemented with 10% fetal bovine serum, 0.01 mg/mL human recombinant insulin, 2 mM of L-glutamine and 1% Penicillin-Streptomycin, respectively. Each cell line was cultured in a humidified atmosphere with 5% CO2 at 37° C.
# To study the general uptake and retention of glucose, cells were exposed to 300 μM of 2-(N-(7-Nitrobenz-2-oxa-1,3-diazol-4-yl)Amino)-2-Deoxyglucose (2-NBDG) for different incubation times: 1, 5, 10, 20, 30, and 60 min. To achieve higher 2-NBDG accumulation inside MCF7 cells, cells were exposed to different conditions based on the concentrations of dissolved oxygen. The effects on oxygen availability were evaluated by exposing cells to the hyperoxic or hypoxic environment, created by bubbling 2-NBDG incubation media for 20 min with oxygen or nitrogen, respectively. Afterwards, cells were fixed with 4% paraformaldehyde solution in 1×PBS, for 20 min, and then washed 6 times with 1×PBS and mounted onto glass slides with Fluoromount G (Southern Biotech), for the fluorescence measurements.
# (§1) Fixed cells were imaged with fluorescence microscopy and then analysed using Image J. Epi-fluorescence microscope NIKON TE2000E equipped with the 465/495 excitation and 515/555 emission filters was used to collect the fluorescence of 2-NBDG. […]
# 2-(N-(7-Nitrobenz-2-oxa-1,3-diazol-4-yl)Amino)-2-Deoxyglucose (2-NBDG) is chosen as the model metabolism indicator. […] The concentration of 2-NBDG was determined based on the gain of clear visibility on the fluorescence images. The fluorescence intensity was quantified using Image J. The same thresholds were set for fluorescence images of both healthy and cancer cells to remove the background noises. […]
# [2] = tested on: co-cultured MCF7 (Qdot685 labelled) cells with MCF12A (Qdot625 labelled) cells; experiment: 2-NBD glucose uptake measurements in co-cultured cells; conditions: 300 μM 2-NBDG, 5 min, hyperoxic environment, co-culture
# Procedure: To successfully identify different cell types in a cell mixture, previously functionalized Qdot 625 and 685 were used as the intracellular trackers for MCF12A and MCF7 cells, respectively. 50,000 cells/wells of each type were cultured separately onto glass cover slips inside 12-well plates and left growing for 48 h, at 5% CO2 and 37° C. Then, cells were washed with pre-warmed 1×PBS for 1 minute and 100 nM of each Qdot@amino-PEG was added in the cell growth media, and waited for 1 hour. After the incubation, cells were washed 3 times with 1×PBS. MCF7 (Qdot685 labelled) cells were detached from the surface using Trypsin-EDTA solution 0.25% and re-cultured onto MCF12A (Qdot625 labelled) cells. […]
# Co-cultured MCF7 (Qdot685 labelled) cells with MCF12A (Qdot625 labelled) cells were exposed to 300 μM of 2-NBDG for 5 min, under the hyperoxic environment, determined by the previous optimizations. Afterwards, cells were fixed with 4% paraformaldehyde solution in 1×PBS for 20 min, and then washed 6 times with 1×PBS and mounted onto glass slides with Fluoromount G (Southern Biotech), for the fluorescence measurements.
# as §1
structure (smiles),measurement,setting,value
"O=[N+]([O-])c1ccc(N[C@H]2C(O)O[C@H](CO)[C@@H](O)[C@@H]2O)c2nonc12 (some centres unmarked) [2-NBDG, 2-(N-(7-Nitrobenz-2-oxa-1,3-diazol-4-yl)Amino)-2-Deoxyglucose]","Single cell fluorescence intensity of 2-NBDG, cancer versus healthy cells",MCF7 and MCF12A cells,higher fluorescence intensity compared to the healthy ones
same,"Fluorescence intensity of 2-NBDG, cancer versus healthy cells","[1]; 5 min incubation, MCF7 vs MCF12A cultured separately",higher fluorescence compared to healthy cells
same,"Fluorescence intensity of 2-NBDG, cancer versus healthy cells","[1]; incubation longer than 5 min (up to 60 min), MCF7 vs MCF12A",fluorescence from healthy cells overtakes the cancer cells
same,Fluorescence intensity gap between cancer and healthy cells,"[1]; 5 min incubation, hyperoxia compared to control and hypoxia environments",further enlarged
same,"Fluorescence intensity of 2-NBDG, cancer cell versus surrounded healthy cells",[2],greater fluorescence intensity
